A value given as a limit tells only on which side of the number the result lay.

A short description of this assay: Iron-chelating activity after 4 hrs by CAS assay. It is filed as functional.
Compound `CC(C)CC(=O)N(O)CCCCCNC(=O)CCC(=O)N(O)CCCCCNC(=O)CCC(=O)N(O)CCCCCN` showed an ED50 of 115 µM. `CC(=O)N(O)CCCCCNC(=O)CCC(=O)N(O)CCCCCNC(=O)CCC(=O)N(O)CCCCCN` registered an ED50 of 120 µM.

As for `COC(=O)CCC(=O)NCCCCCN(O)C(=O)CC(C)C`, the ED50 was above 1000 µM. The compound `CC(C)CC(=O)N(O)CCCCCNC(=O)CCC(=O)N(O)CCCCCNC(=O)CCC(=O)O` yielded an ED50 of 110 µM. The compound `CC(C)CC(=O)N(O)CCCCCNC(=O)CCC(=O)O` came in with an ED50 above 1000 µM.

These data come from ChEMBL document CHEMBL1142110, “Tenacibactins A-D, hydroxamate siderophores from a marine-derived bacterium, Tenacibaculum sp. A4K-17” (J Nat Prod, 2007).
